Legend:
[1] = Degradation half life of the compound at 50 mM at pH 7.2; assay type: physicochemical; settings: buffer
[2] = Degradation half life of the compound at 30 mM at pH 7.2; assay type: physicochemical; settings: buffer
[3] = Degradation half life of the compound at 10 mM at pH 7.2; assay type: physicochemical; settings: buffer
Dipeptidyl peptidase 4 = Dipeptidyl peptidase 4 (Homo sapiens, UniProt P27487); experiment: Inhibition of human DPP4 using gly-pro-para-nitroanilide as substrate
Dipeptidyl peptidase 4, sequence (P27487 whole entry): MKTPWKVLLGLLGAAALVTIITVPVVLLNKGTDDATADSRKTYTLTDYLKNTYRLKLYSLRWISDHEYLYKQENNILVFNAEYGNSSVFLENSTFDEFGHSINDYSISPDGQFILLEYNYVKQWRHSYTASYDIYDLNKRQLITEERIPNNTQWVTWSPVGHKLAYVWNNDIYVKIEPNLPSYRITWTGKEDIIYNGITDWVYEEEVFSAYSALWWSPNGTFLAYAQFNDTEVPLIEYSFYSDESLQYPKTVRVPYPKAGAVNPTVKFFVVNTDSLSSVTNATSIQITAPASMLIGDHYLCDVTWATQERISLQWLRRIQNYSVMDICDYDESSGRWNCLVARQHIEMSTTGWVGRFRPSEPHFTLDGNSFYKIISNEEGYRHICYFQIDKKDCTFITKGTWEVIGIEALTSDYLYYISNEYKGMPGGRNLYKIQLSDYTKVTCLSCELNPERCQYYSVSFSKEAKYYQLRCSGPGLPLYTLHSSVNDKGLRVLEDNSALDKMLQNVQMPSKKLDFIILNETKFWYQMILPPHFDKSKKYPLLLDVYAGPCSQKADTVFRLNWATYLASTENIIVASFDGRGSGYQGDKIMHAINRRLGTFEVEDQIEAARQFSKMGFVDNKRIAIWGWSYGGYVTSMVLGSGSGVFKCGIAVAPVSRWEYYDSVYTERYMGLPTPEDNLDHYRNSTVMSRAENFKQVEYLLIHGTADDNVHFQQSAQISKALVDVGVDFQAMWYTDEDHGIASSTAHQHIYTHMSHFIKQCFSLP

half-life at 50000 µM [1] | half-life at 30000 µM [2] | half-life at 10000 µM [3] | Ki (Dipeptidyl peptidase 4) | Structure (SMILES)
1.6 days | 1.6 days | 2 days | – | CC(C)(C)CC(=O)N1CCC([C@H](N)C(=O)N2[C@H](C#N)C[C@@H]3C[C@@H]32)CC1
– | – | – | 18 nM | N#C[C@@H]1C[C@@H]2C[C@@H]2N1C(=O)[C@@H](N)C1CCN(C(=O)Cc2ccccc2)CC1
– | – | – | 13 nM | N#C[C@@H]1C[C@@H]2C[C@@H]2N1C(=O)[C@@H](N)C1CCN(S(=O)(=O)c2cccc3ccccc23)CC1
8 days | 10.2 days | 19.7 days | – | CCC1([C@H](N)C(=O)N2[C@H](C#N)C[C@@H]3C[C@@H]32)CCN(C(=O)CC(C)(C)C)CC1
